Consider 12 compounds from patent publication US10717734B2, “Indole and azaindole haloallylamine derivative inhibitors of lysyl oxidases and uses thereof” (PHARMAXIS LTD., priority 2016, dated 2020).

Common to all, as to format: biochemical
The target in one assay is Bovine LOX (Bos taurus (Bovine), UniProt P33072). As to the kind of experiment: LOX inhibition, peroxidase-coupled Amplex Red amine oxidase assay. The following applies: 30 min preincubation at 37° C., putrescine substrate. An excerpt:
(§1) Method to Determine the Ability of Compounds of the Invention to Inhibit LOX and LOXL1-4 from Different Sources
Lysyl oxidase (LOX) is an extracellular copper dependent enzyme which oxidizes peptidyl lysine and hydroxylysine residues in collagen and lysine residues in elastin to produce peptidyl alpha-aminoadipic-delta-semialdehydes. […] There are five LOX family members; these are LOX, LOXL1, LOXL2, LOXL3 and LOXL4. LOX and LOXL family members can be acquired as recombinant active proteins from commercial sources, or extracted from animal tissues like bovine aorta, tendons, pig skin; or prepared from cell cultures. The inhibitory effects of the compounds of the present invention were tested against the given LOX-LOXL preparation using a high-throughput coupled colorimetric method (Holt A. and Palcic M., A peroxidase-coupled continuous absorbance plate-reader assay for flavin monoamine oxidases, copper-containing amine oxidases and related enzymes. Nat. Protoc. 2006; 1: 2498-2505). The assay was developed using either 384 or 96 well format. Briefly, in a standard 384 well plate assay 25 μL of a dilution of any of the isoenzymes and orthologues in 1.2 M urea, 50 mM sodium borate buffer (pH 8.2) were added into each well in the presence of 1 μM mofegiline and 0.5 mM pargyline (to inhibit SSAO and MAO-B and MAO-A, respectively). […] Twenty five μL of a reaction mixture containing twice the KM concentration of putrescine (Sigma Aldrich, e.g. 20 mM for LOX, or 10 mM for LOXL2 and LOXL3), 120 μM Amplex Red (Sigma Aldrich) and 1.5 U/mL horseradish peroxidase (Sigma Aldrich) prepared in 1.2 M urea, 50 mM sodium borate buffer (pH 8.2) were then added to the corresponding wells. The above volumes were doubled in the case of 96 wells plate. The fluorescence (RFU) was read every 2.5 min for 30 min at a range of temperatures from 37° to 45° C., excitation 565 nm and emission 590 (Optima; BMG labtech). The slope of the kinetics for each well was calculated using MARS data analysis software (BMG labtech) and this value was used to deduce the IC50 value (Dotmatics).

Assay [1] has as its target Human recombinant SSAO/VAP-1 (Homo sapiens (Human), UniProt Q16853). As to the kind of experiment: Human recombinant SSAO/VAP-1 amine oxidase inhibition. The following applies: 30 min preincubation at 37° C., 600 μM benzylamine. The procedure:
Method to Determine the Ability of Compounds of Formula I to Inhibit Human Recombinant SSAO/VAP-1
Human recombinant SSAO/VAP-1 amine oxidase activity was determined using the coupled colorimetric method as described for monoamine oxidase, copper-containing amine oxidases and related enzymes (Holt A. and Palcic M., A peroxidase-coupled continuous absorbance plate-reader assay for flavin monoamine oxidases, copper-containing amine oxidases and related enzymes. Nat Protoc 2006; 1: 2498-2505). Briefly, a cloned cDNA template corresponding to residues 34-763 of human SSAO/VAP-1, and incorporating a mouse Ig kappa (κ) signal sequence, N-terminal flag epitope tag and tobacco etch virus (TEV) cleavage site, was assembled in a mammalian expression vector (pLO-CMV) by Geneart AG. This vector containing human SSAO/VAP-1 residues was transfected into CHO-K1 glycosylation mutant cell line, Lec 8. A clone stably expressing human SSAO/VAP-1 was isolated and cultured in large scale. Active human SSAO/VAP-1 was purified and recovered using immunoaffinity chromatography. This was used as the source for SSAO/VAP-1 activity. A high-throughput colorimetric assay was developed using either 96 or 384 well format. Briefly, in a standard 96 well plate assay 50 μL of purified human SSAO/VAP-1 (0.25 μg/mL) in 0.1 M sodium phosphate buffer (pH 7.4) was added into each well. Test compounds were dissolved in DMSO and tested in a Concentration Response Curve (CRC) with 4-11 data points, typically in the micromolar or nanomolar range after incubation with human SSAO/VAP-1 for 30 min at 37° C. After 30 min incubation, 50 μL of the reaction mixture containing 600 μM benzylamine (Sigma Aldrich), 120 μM Amplex Red (Sigma Aldrich) and 1.5 U/mL horseradish peroxidase (Sigma Aldrich) prepared in 0.1 M sodium phosphate buffer (pH 7.4) were added to the corresponding well. The fluorescence unit (RFU) was read every 2.5 min for 30 min at 37° C. excitation 565 nm and emission 590 (Optima; BMG labtech). The slope of the kinetics for each well was calculated using MARS data analysis software (BMG labtech) and this value was used to deduce the IC50 value (Dotmatics).

For the next assay, the target named is Recombinant human MAO-B (Homo sapiens (Human), UniProt P27338). As to the kind of experiment: Human recombinant MAO-B inhibition. The conditions noted are these: benzylamine 100 μM. The procedure:
Method to Determine the Ability of Compounds of Formula I to Inhibit Human Recombinant MAO-B
The specificity of the compounds of this invention was tested by determining their ability to inhibit MAO-B activities in vitro. Recombinant human MAO-B (0.06 mg/mL; Sigma Aldrich) was used as source of MAO-B enzyme activities. The assay was performed in a similar way as for human SSAO/VAP-1 (Example 36) except, the substrate benzylamine was used at 100 μM.

The target in another assay is Human LOXL2 (Homo sapiens (Human), UniProt Q9Y4K0). In words: LOXL2 inhibition, peroxidase-coupled Amplex Red amine oxidase assay. The conditions noted are these: 30 min preincubation at 37° C., putrescine substrate.
Chain of Human LOXL2 (Q9Y4K0 26-774): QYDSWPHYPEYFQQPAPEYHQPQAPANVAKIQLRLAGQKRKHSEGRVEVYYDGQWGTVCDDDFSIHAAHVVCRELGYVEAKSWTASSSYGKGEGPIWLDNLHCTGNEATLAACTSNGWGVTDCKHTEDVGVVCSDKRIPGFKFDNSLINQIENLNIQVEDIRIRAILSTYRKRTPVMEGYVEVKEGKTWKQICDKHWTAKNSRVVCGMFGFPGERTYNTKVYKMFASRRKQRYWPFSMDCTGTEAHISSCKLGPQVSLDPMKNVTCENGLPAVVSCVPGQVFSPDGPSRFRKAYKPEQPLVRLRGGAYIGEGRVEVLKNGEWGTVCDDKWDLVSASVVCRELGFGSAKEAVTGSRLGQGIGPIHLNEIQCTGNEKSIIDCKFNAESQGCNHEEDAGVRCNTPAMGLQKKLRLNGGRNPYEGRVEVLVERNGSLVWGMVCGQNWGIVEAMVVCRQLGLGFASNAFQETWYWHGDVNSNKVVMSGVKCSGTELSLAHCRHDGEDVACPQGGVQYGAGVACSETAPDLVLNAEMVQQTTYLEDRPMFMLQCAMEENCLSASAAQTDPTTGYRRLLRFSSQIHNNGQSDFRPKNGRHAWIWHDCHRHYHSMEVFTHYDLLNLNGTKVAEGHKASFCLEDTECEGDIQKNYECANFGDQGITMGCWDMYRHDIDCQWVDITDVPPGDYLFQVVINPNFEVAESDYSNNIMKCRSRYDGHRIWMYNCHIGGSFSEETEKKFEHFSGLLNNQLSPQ
Excerpt: as §1
Lysyl oxidase (LOX) is an extracellular copper dependent enzyme which oxidizes peptidyl lysine and hydroxylysine residues in collagen and lysine residues in elastin to produce peptidyl alpha-aminoadipic-delta-semialdehydes. […] There are five LOX family members; these are LOX, LOXL1, LOXL2, LOXL3 and LOXL4. LOX and LOXL family members can be acquired as recombinant active proteins from commercial sources, or extracted from animal tissues like bovine aorta, tendons, pig skin; or prepared from cell cultures. The inhibitory effects of the compounds of the present invention were tested against the given LOX-LOXL preparation using a high-throughput coupled colorimetric method (Holt A. and Palcic M., A peroxidase-coupled continuous absorbance plate-reader assay for flavin monoamine oxidases, copper-containing amine oxidases and related enzymes. Nat. Protoc. 2006; 1: 2498-2505). The assay was developed using either 384 or 96 well format. Briefly, in a standard 384 well plate assay 25 μL of a dilution of any of the isoenzymes and orthologues in 1.2 M urea, 50 mM sodium borate buffer (pH 8.2) were added into each well in the presence of 1 μM mofegiline and 0.5 mM pargyline (to inhibit SSAO and MAO-B and MAO-A, respectively). Test compounds were dissolved in DMSO and tested in a Concentration Response Curve (CRC) with 11 data points, typically in the micromolar or nanomolar range after incubation with the enzyme for 30 min at 37° C. Twenty five μL of a reaction mixture containing twice the KM concentration of putrescine (Sigma Aldrich, e.g. 20 mM for LOX, or 10 mM for LOXL2 and LOXL3), 120 μM Amplex Red (Sigma Aldrich) and 1.5 U/mL horseradish peroxidase (Sigma Aldrich) prepared in 1.2 M urea, 50 mM sodium borate buffer (pH 8.2) were then added to the corresponding wells. The above volumes were doubled in the case of 96 wells plate. The fluorescence (RFU) was read every 2.5 min for 30 min at a range of temperatures from 37° to 45° C., excitation 565 nm and emission 590 (Optima; BMG labtech). The slope of the kinetics for each well was calculated using MARS data analysis software (BMG labtech) and this value was used to deduce the IC50 value (Dotmatics).

Counter-ions that a name gives are not always drawn. Some results are limits rather than exact numbers.

The term IC50 denotes the midpoint of a concentration-inhibition curve.

Chain of Bovine LOX (P33072 170-418): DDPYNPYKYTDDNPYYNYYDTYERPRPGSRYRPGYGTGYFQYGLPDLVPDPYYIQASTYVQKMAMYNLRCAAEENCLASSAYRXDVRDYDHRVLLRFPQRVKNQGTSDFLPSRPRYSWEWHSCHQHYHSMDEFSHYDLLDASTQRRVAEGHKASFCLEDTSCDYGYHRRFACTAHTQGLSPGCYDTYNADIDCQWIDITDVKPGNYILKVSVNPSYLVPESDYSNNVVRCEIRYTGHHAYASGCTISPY
Chain of Human recombinant SSAO/VAP-1 (Q16853 34-763): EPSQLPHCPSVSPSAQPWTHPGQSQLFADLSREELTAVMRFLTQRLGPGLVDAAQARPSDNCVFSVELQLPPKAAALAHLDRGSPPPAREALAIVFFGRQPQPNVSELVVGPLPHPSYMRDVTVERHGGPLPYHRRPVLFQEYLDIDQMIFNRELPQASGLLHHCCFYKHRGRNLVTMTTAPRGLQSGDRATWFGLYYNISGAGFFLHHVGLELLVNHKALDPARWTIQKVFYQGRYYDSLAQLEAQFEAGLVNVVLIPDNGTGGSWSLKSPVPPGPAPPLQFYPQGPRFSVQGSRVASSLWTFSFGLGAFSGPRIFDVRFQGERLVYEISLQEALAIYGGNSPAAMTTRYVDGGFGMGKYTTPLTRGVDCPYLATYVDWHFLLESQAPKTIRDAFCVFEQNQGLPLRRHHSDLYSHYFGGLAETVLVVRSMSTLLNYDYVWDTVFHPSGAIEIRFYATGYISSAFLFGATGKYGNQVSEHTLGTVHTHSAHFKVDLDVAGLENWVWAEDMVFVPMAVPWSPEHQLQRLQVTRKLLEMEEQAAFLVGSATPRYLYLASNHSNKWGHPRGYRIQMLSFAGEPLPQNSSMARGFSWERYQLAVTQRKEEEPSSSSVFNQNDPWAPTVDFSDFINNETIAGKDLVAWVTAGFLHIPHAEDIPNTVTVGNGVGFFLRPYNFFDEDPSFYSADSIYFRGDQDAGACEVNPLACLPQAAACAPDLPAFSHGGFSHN
Chain of Recombinant human MAO-B (P27338 whole entry): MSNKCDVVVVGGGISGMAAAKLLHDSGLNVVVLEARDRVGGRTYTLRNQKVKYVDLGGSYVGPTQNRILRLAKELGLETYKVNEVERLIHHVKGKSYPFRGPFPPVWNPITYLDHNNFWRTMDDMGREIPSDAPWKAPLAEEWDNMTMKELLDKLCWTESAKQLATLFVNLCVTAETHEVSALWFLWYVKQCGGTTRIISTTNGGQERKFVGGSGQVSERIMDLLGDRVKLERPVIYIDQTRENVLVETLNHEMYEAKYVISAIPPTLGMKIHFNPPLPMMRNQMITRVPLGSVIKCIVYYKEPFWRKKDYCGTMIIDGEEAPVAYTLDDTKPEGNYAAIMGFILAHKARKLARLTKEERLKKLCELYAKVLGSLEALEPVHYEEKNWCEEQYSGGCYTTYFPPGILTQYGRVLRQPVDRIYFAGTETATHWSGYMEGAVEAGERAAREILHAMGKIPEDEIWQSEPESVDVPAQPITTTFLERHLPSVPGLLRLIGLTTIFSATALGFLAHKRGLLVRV

As to `Cc1c(Cc2ccc(S(=O)(=O)N(C)C)cc2)c2cc(C(=O)O)ccc2n1C/C(F)=C/CN` [Compound 1, (Z)-1-(4-amino-2-fluorobut-2-en-1-yl)-3-(4-(N,N-dimethylsulfamoyl)benzyl)-2-methyl-1H-indole-5-carboxylic acid hydrochloride], the IC50 at Bovine LOX was above 300 nM; in assay [1] it was above 3000 nM; on Recombinant human MAO-B it was above 3000 nM; against Human LOXL2, below 300 nM.

On to `COC(=O)c1ccc2c(c1)c(Cc1ccc(S(=O)(=O)N(C)C)cc1)c(C)n2C/C(F)=C/CN` [Compound 2, Methyl (Z)-1-(4-amino-2-fluorobut-2-en-1-yl)-3-(4-(N,N-dimethylsulfamoyl)benzyl)-2-methyl-1H-indole-5-carboxylate hydrochloride], for which the IC50 on Bovine LOX is above 300 nM; in assay [1], above 3000 nM; on Recombinant human MAO-B it was above 3000 nM; at Human LOXL2 it was below 300 nM.

As for `Cc1c(Cc2ccc(S(=O)(=O)N(C)C)cc2)c2cc(C(=O)N(C)C)ccc2n1C/C(F)=C/CN` [Compound 3, (Z)-1-(4-amino-2-fluorobut-2-en-1-yl)-3-(4-(N,N-dimethylsulfamoyl)benzyl)-N,N,2-trimethyl-1H-indole-5-carboxamide hydrochloride], the IC50 at Bovine LOX is above 300 nM; in assay [1] it was above 3000 nM; on Recombinant human MAO-B, above 3000 nM; against Human LOXL2, below 300 nM.

For the compound `Cc1c(Cc2ccc(S(=O)(=O)N(C)C)cc2)c2cc(C(N)=O)ccc2n1C/C(F)=C/CN` [Compound 4, (Z)-1-(4-amino-2-fluorobut-2-en-1-yl)-3-(4-(N,N-dimethylsulfamoyl)benzyl)-2-methyl-1H-indole-5-carboxamide hydrochloride], the IC50 was above 300 nM against Bovine LOX, above 3000 nM in assay [1], above 3000 nM at Recombinant human MAO-B and below 300 nM against Human LOXL2.

As for `CN(C)C(=O)c1c(Cc2ccc(S(=O)(=O)N(C)C)cc2)c2ccccc2n1C/C(F)=C/CN` [Compound 5, (Z)-1-(4-amino-2-fluorobut-2-en-1-yl)-3-(4-(N,N-dimethylsulfamoyl)benzyl)-N,N-dimethyl-1H-indole-2-carboxamide hydrochloride], the concentration for half-maximal inhibition (IC50) against Bovine LOX is above 300 nM; in assay [1] it was above 3000 nM; at Recombinant human MAO-B it was above 3000 nM; against Human LOXL2, below 300 nM.

In the case of `Cc1c(Cc2ccc(S(=O)(=O)N(C)C)cc2)c2cc(S(=O)(=O)N(C)C)ccc2n1C/C(F)=C/CN` [Compound 6, (Z)-1-(4-amino-2-fluorobut-2-en-1-yl)-3-(4-(N,N-dimethylsulfamoyl)benzyl)-N,N,2-trimethyl-1H-indole-5-sulfonamide hydrochloride], the half-maximal inhibitory concentration (IC50) was above 300 nM against Bovine LOX, above 3000 nM in assay [1], above 3000 nM at Recombinant human MAO-B and below 300 nM on Human LOXL2.

For the compound `Cc1c(Cc2cccc(S(=O)(=O)N(C)C)c2)c2cc(S(=O)(=O)N(C)C)ccc2n1C/C(F)=C/CN` [Compound 7, (Z)-1-(4-amino-2-fluorobut-2-en-1-yl)-3-(3-(N,N-dimethylsulfamoyl)benzyl)-N,N,2-trimethyl-1H-indole-5-sulfonamide hydrochloride], the IC50 on Bovine LOX was above 300 nM; in assay [1] it was above 3000 nM; at Recombinant human MAO-B it was above 3000 nM; on Human LOXL2, below 300 nM.

As for `Cc1c(Cc2ccc(S(=O)(=O)N(C)C)cc2)c2ncccc2n1C/C(F)=C/CN` [Compound 8, (Z)-4-((1-(4-amino-2-fluorobut-2-en-1-yl)-2-methyl-1H-pyrrolo[3,2-b]pyridin-3-yl)methyl)-N,N-dimethylbenzenesulfonamide dihydrochloride], the IC50 is above 300 nM at Bovine LOX, above 3000 nM in assay [1], above 3000 nM on Recombinant human MAO-B and below 300 nM at Human LOXL2.

Take `Cc1ccc2c(n1)c(Cc1ccc(S(=O)(=O)N(C)C)cc1)c(C)n2C/C(F)=C/CN` [Compound 9, (Z)-4-((1-(4-amino-2-fluorobut-2-en-1-yl)-2,5-dimethyl-1H-pyrrolo[3,2-b]pyridin-3-yl)methyl)-N,N-dimethylbenzenesulfonamide dihydrochloride]: the half-inhibitory concentration (IC50) is above 300 nM against Bovine LOX, above 3000 nM in assay [1], above 3000 nM on Recombinant human MAO-B and below 300 nM at Human LOXL2.

As for `Cc1c(Cc2ccc(S(C)(=O)=O)cc2)c2ncccc2n1C/C(F)=C/CN` [Compound 10, (Z)-3-fluoro-4-(2-methyl-3-(4-(methylsulfonyl)benzyl)-1H-pyrrolo[3,2-b]pyridin-1-yl)but-2-en-1-amine dihydrochloride], the 50% inhibitory concentration (IC50) is above 300 nM against Bovine LOX, above 3000 nM in assay [1], above 3000 nM on Recombinant human MAO-B and below 300 nM against Human LOXL2.

As to `CCS(=O)(=O)c1ccc(Cc2c(C(C)C)n(C/C(F)=C/CN)c3cccnc23)cn1` [Compound 43, (Z)-4-(3-((6-(ethylsulfonyl)pyridin-3-yl)methyl)-2-isopropyl-1H-pyrrolo[3,2-b]pyridin-1-yl)-3-fluorobut-2-en-1-amine dihydrochloride], the IC50 at Bovine LOX was above 300 nM; against Human LOXL2, below 300 nM.

On to `CC(C)c1c(Cc2ccc(S(=O)(=O)C3CC3)nc2)c2ncccc2n1C/C(F)=C/CN` [Compound 44, (Z)-4-(3-((6-(cyclopropylsulfonyl)pyridin-3-yl)methyl)-2-isopropyl-1H-pyrrolo[3,2-b]pyridin-1-yl)-3-fluorobut-2-en-1-amine dihydrochloride], for which the half-maximal inhibitory concentration (IC50) on Bovine LOX is above 300 nM; against Human LOXL2, below 300 nM.
